{
  "source": "paper PMC8353398",
  "about": "(Frontiers in Pharmacology, 2021)",
  "key": {"[1]": {"test_system": "spontaneously hypertensive rats (SHR)", "assay": "Invasive hemodynamics and echocardiography after 6-week infusion in SHR rats", "conditions": "for Diastolic AP / Mean AP / Systolic AP: pressure catheter", "experimental": "Male spontaneously hypertensive rats (SHR) and normotensive Wistar-Kyoto (WKY) rats were purchased from Charles River Laboratories (Kingston, ON, Canada) and maintained in a temperature-controlled room with a 12 h light/dark cycle at the animal facility of the Université de Sherbrooke. All animals were randomized with unique identification number into the different groups tested to maintain experimenter blinding. The study included six distinct SHR experimental groups (Table 1). Three groups received a standard rat chow diet containing 0.3% of NaCl (Charles River, ON, Canada) while the other three groups were fed a rat diet containing 8% of NaCl for 6 weeks (Research Diets, NJ, United States). Once a week, urine output and water intake were measured over 24 h using metabolic cages following 3 days of acclimatization. After 6 weeks of different salt intake regimens, the rats were anesthetized with 2% isoflurane for echocardiographic and hemodynamic measurements. Subsequently, blood samples were collected into tubes containing K2-EDTA and centrifuged at 2000 g for 10 min at 4°C before storing the plasma at −80°C. Plasma and urinary concentrations of sodium were determined by a vitros 750 XRC analyser (Johnson-Johnson Clinical Diagnostics; Rochester, NY). OCT-embedded sections of heart (7 µm) were generated and collagen fibers visualized by Masson’s trichrome staining. Immunohistochemistry stained slides were captured by an automated Hamamatsu Nanozoomer 2.0RS slide scanner (Hamamatsu Photonics). Heart and kidneys were also harvested, snap frozen in liquid nitrogen and stored at −80°C for mRNA expression analysis. All animal procedures were approved by our institutional ethical committee (protocol #2017–2115), in compliance with the policies and directives of the Canadian Council on Animal Care and with the ARRIVE guidelines.\nBriefly, 2-chlorotrityl chloride resin (2-CTC, 120 mg) was loaded with Fmoc-L-Phe-OH (0.85 mmol/g). Fmoc protecting group was removed by treating the resin with a 20% piperidine solution. The coupling steps were carried out using [hexafluorophosphate of O-(7-azabenzotriazol-1-yl)-1,1,3,3-tetramethyluronium] (HATU, 5 equiv), amino acid (5 equiv) and DIPEA (5 equiv). The final peptide was cleaved from resin using a cocktail of trifluoroacetic acid (TFA)/triisopropylsilane (TIPS)/ethanedithiol (EDT)/water (92.5/2.5/2.5/2.5) and purified by preparative HPLC (ACE5 C18 column 250 × 21.2 mm, 5 μm spherical particle size). […] Finally, peptide was purified by preparative HPLC.\nTransthoracic echocardiography was performed under isoflurane anesthesia (2%; […]; Baxter) with the Vevo 3,100 ultrasound apparatus using a MX250 transducer (FUJIFILM VisualSonics, ON, Canada). A short axis view of the left ventricle (LV) was obtained at the level of the papillary muscle and the M-mode tracing was recorded. LV End-Diastolic and End-Systolic Diameters (LVEDD; LVESD) were measured in order to calculate the fractional shortening (FS). Stroke volume was next calculated in order to assess Cardiac Output (CO) and Cardiac Index (CI). Pulse propagation velocity (PPV) was determined by ultrasound measurements of the abdominal aorta using EKV-image acquisition and analyzed with Vevo-Vasc software (FUJIFILM VisualSonics, ON, Canada). For invasive hemodynamic measurements, rats were intubated under isoflurane anesthesia (2%; […]; Baxter, IL, United States) and ventilated (SAR-1000, CWE). The right carotid artery was then cannulated with a pressure catheter (1.9F, Transonic, NY, United States) and advanced into the LV to record end-systolic and end-diastolic pressures."}, "rACE2": {"molecular_target": "T1, rACE2 (Rattus norvegicus, UniProt Q5EGZ1)", "T1 construct": "purchased Sino Biological (Beijing, China)", "T1 sequence (Q5EGZ1 18-805)": "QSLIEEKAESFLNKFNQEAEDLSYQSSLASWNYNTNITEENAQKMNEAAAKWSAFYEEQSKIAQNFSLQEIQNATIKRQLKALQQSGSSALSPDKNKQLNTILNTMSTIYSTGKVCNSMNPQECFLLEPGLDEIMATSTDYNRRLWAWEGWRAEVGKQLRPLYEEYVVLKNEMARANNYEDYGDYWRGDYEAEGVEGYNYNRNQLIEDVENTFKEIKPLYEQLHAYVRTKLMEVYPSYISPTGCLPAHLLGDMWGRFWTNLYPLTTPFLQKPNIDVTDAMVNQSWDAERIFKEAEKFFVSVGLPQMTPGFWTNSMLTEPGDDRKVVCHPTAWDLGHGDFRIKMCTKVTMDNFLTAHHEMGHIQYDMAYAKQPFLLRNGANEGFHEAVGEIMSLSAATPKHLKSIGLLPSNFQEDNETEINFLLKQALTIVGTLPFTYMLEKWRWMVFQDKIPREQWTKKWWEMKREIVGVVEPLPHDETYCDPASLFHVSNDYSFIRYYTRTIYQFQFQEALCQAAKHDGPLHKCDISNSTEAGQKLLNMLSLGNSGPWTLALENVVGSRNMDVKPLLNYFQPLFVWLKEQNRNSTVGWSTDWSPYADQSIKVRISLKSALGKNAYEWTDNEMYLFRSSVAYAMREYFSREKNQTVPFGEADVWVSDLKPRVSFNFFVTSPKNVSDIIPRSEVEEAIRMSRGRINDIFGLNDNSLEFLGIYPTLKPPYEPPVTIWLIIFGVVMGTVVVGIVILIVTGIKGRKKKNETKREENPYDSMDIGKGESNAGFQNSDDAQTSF", "assay": "Peptide stability, cleavage assay with purified rat ACE2", "format": "in vitro ADME", "conditions": "purified rat ACE2 (final around 50 nM), 5 µL of 1 mM peptide in about 105 µL; 100 mM Tris-HCl pH 7.4, 100 mM NaCl, 10 µM ZnCl2; 37°C, 300 rpm; sampled 5-120 min; UPLC-MS SIM; repeated 3-5 times", "experimental": "(§1) Rat enzymes rACE2 and rNEP were purchased from Sino Biological (Beijing, China) while rACE was obtained from EMD Millipore (Burlington, MA, United States). Enzymes were dissolved in milli-Q water (at 1 μM for rACE2/rNEP and 1.65 μM for rACE), aliquoted and stored at -80°C, as recommended by suppliers. […] Before adding the enzyme, the blank sample (t = 0 min) was prepared by removing 10 μL of this mixture and quenched with 10 μL of EDTA 0.5 M. To initiate the enzymatic reaction, 5 μL of enzyme (1 μM or 1.65 μM) was added to the mixture (final enzyme concentration around 50 nM or 82 nM). This mixture was kept in an incubator at 37°C equipped with an orbital shaker (300 rpm). Ten μL was sampled at 5, 10, 20, 60, and 120 min from this mixture, and quenched with 10 μL EDTA 0.5 M (prepared in milli-Q water and filtered) to inactivate the enzyme. […] First analyses (t = 0 min, t = 120 min) scanned m/z from 300-1200 to evaluate if peptides are cleaved and peptide fragments will be detected. After identifying the m/z of peptides and fragments, peptides were quantified using single ion mode (SIM). […] Angiotensin II was used as reference substrate in the assay with rACE2 and rNEP and angiotensin I was used as reference substrate in the assay with rACE. Experiments were repeated 3-5 times."}, "[2]": {"test_system": "spontaneously hypertensive rats (SHR)", "assay": "Quantitative RT-PCR of pro-fibrotic and RAAS genes in heart and kidneys of treated SHR rats", "format": "in vivo, rat", "conditions": "high-salt diet, 10 nmol/kg/hr 6-week infusion, qRT-PCR, Rpl30 reporter", "experimental": "Total RNA was extracted from heart and kidneys using RNeasy Mini kits (Qiagen) according to the manufacturer’s protocol. iScript Reverse Transcription Supermix (Bio-Rad) was used to prepare cDNA from 1 µg of total RNA in 20 µL. Real-time PCR was performed on technical duplicates with cDNA diluted 30x in nuclease-free water and using SsoAdvanced™ Universal SYBR® Green Supermix (Bio-Rad) in a Mastercycler® ep RealPlex (Eppendorf). The Ribosomal protein L30 (Rpl30) of heart or kidney was used as a reporter gene and fold changes were obtained using the 2(-ΔΔCt) method ([Livak and Schmittgen, 2001]). Data were then normalized to SHR rats receiving a standard chow diet containing 0.3% of NaCl."}, "[3]": {"test_system": "adult male Sprague-Dawley rats", "conditions": "cecal-ligation puncture sepsis, 10 nmol/kg/hr, ref Coquerel et al., 2017; cited from earlier work", "description": "The final peptide was cleaved fr ..."}, "rACE": {"test_system": "rACE", "assay": "Peptide stability, cleavage assay with purified rat ACE", "format": "in vitro ADME", "conditions": "purified rat ACE (final around 82 nM), 5 µL of 1 mM peptide in about 105 µL; 100 mM Tris-HCl pH 7.4, 100 mM NaCl, 10 µM ZnCl2; 37°C, 300 rpm; sampled 5-120 min; UPLC-MS SIM; repeated 3-5 times", "experimental": "as §1"}, "rNEP": {"molecular_target": "T2, rNEP (Rattus norvegicus, UniProt P07861)", "T2 construct": "purchased Sino Biological (Beijing, China)", "T2 sequence (P07861 1-750)": "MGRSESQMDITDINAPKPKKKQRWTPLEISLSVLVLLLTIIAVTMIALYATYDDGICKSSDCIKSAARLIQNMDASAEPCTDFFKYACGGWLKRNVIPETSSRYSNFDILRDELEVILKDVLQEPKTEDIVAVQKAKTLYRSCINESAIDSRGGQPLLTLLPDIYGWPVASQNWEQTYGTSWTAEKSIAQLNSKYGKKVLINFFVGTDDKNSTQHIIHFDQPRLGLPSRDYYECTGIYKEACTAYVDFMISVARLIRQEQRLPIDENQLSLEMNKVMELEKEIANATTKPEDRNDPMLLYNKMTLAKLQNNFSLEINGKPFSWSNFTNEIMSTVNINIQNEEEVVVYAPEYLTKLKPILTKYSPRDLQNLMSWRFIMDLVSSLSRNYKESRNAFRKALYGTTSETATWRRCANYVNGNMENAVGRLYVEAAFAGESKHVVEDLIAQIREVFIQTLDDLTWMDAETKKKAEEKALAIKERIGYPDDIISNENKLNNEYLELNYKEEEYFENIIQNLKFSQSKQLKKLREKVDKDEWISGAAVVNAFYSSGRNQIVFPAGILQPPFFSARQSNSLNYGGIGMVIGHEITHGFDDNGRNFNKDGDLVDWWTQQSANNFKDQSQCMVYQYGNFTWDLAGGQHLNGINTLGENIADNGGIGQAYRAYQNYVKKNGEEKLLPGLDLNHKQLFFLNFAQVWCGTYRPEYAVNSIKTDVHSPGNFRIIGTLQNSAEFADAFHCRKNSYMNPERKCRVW", "assay": "Peptide stability, cleavage assay with purified rat neprilysin", "format": "in vitro ADME", "conditions": "purified rat NEP (final around 50 nM), 5 µL of 1 mM peptide in about 105 µL; 100 mM Tris-HCl pH 7.4, 100 mM NaCl, 10 µM ZnCl2; 37°C, 300 rpm; sampled 5-120 min; UPLC-MS SIM; repeated 3-5 times", "experimental": "as §1"}, "[4]": {"conditions": "SHR, high-salt diet (8% NaCl), 10 nmol/kg/hr s.c. infusion 6 weeks, mean ± SEM, n = 6"}, "[5]": {"conditions": "SHR, high-salt diet, 10 nmol/kg/hr s.c. infusion 6 weeks, echocardiography, mean ± SEM, n = 6"}, "[6]": {"conditions": "SHR, normal-salt diet (0.3% NaCl), 10 nmol/kg/hr s.c. infusion 6 weeks, mean ± SEM, n = 5"}, "[7]": {"conditions": "SHR, normal-salt diet, 10 nmol/kg/hr s.c. infusion 6 weeks, echocardiography, mean ± SEM, n = 5"}},
  "data": [
    {"smiles": "CSCC[C@H](NC(=O)[C@@H]1CCCN1C(=O)CNC(=O)[C@H](CCCCN)NC(=O)[C@H](Cc1cnc[nH]1)NC(=O)[C@H](CO)NC(=O)[C@H](CC(C)C)NC(=O)[C@H](CCCNC(=N)N)NC(=O)[C@@H]1CCCN1C(=O)[C@H](CCCNC(=N)N)NC(=O)[C@@H]1CCC(=O)N1)C(=O)N1CCC[C@H]1C(=O)N[C@@H](Cc1ccccc1)C(=O)O", "note": "[Ape13, [Pyr^1]-Apelin-13]", "values": [
      {"measurement": "Effect on cardiovascular damage caused by hypertension per se", "setting": "[1]; SHR on normal-salt intake compared to normotensive WKY, chronic treatment 6 weeks", "result": "does not prevent or reverse"},
      {"measurement": "Effect on hypertension induced by a high-salt diet", "setting": "[1]; SHR, high-salt diet (8% NaCl), 10 nmol/kg/hr continuous 6-week infusion", "result": "no significant effect"},
      {"measurement": "Weight", "setting": "[1]; [4]", "result": "339 ± 10", "unit": "g"},
      {"measurement": "Diastolic AP", "setting": "[1]; [4]", "result": "131 ± 17", "unit": "mmHg"},
      {"measurement": "Mean AP", "setting": "[1]; [4]", "result": "152 ± 19", "unit": "mmHg"},
      {"measurement": "Systolic AP", "setting": "[1]; [4]", "result": "194 ± 23", "unit": "mmHg"},
      {"measurement": "AWTS (anterior wall thickness during systole)", "setting": "[1]; [5]", "result": "2.4 ± 0.1", "unit": "mm"},
      {"measurement": "FS (fractional shortening)", "setting": "[1]; [5]", "result": "37.6 ± 3.3", "unit": "%"},
      {"measurement": "HR (heart rate)", "setting": "[1]; [5]", "result": "348 ± 12", "unit": "bpm"},
      {"measurement": "LVEDD (left ventricular end diastolic diameter)", "setting": "[1]; [5]", "result": "7.2 ± 0.1", "unit": "mm"},
      {"measurement": "LVESD (left ventricular end systolic diameter)", "setting": "[1]; [5]", "result": "4.5 ± 0.3", "unit": "mm"},
      {"measurement": "PWTS (posterior wall thickness during systole)", "setting": "[1]; [5]", "result": "2.6 ± 0.1", "unit": "mm"},
      {"measurement": "Weight", "setting": "[1]; [6]", "result": "321 ± 5", "unit": "g"},
      {"measurement": "Diastolic AP", "setting": "[1]; [6]", "result": "125 ± 12", "unit": "mmHg"},
      {"measurement": "Mean AP", "setting": "[1]; [6]", "result": "143 ± 14", "unit": "mmHg"},
      {"measurement": "Systolic AP", "setting": "[1]; [6]", "result": "179 ± 19", "unit": "mmHg"},
      {"measurement": "APPV (aortic pulse propagation velocity)", "setting": "[1]; [7]", "result": "4.5 ± 0.4", "unit": "m/s"},
      {"measurement": "AWTS (anterior wall thickness during systole)", "setting": "[1]; [7]", "result": "2.3 ± 0.1", "unit": "mm"},
      {"measurement": "FS (fractional shortening)", "setting": "[1]; [7]", "result": "39.8 ± 1.1", "unit": "%"},
      {"measurement": "HR (heart rate)", "setting": "[1]; [7]", "result": "372 ± 4", "unit": "bpm"},
      {"measurement": "LVEDD (left ventricular end diastolic diameter)", "setting": "[1]; [7]", "result": "6.3 ± 0.4", "unit": "mm"},
      {"measurement": "LVESD (left ventricular end systolic diameter)", "setting": "[1]; [7]", "result": "3.8 ± 0.3", "unit": "mm"},
      {"measurement": "PWTS (posterior wall thickness during systole)", "setting": "[1]; [7]", "result": "2.3 ± 0.1", "unit": "mm"},
      {"measurement": "Cleavage by ACE2 within 2 h", "setting": "rACE2", "result": "rapidly and fully hydrolyzed"},
      {"measurement": "Expression of pro-fibrotic Col1a, Acta1 and Tgfb2 genes in kidneys", "setting": "[2]", "result": "only reduced the Tgfb2 mRNA level"},
      {"measurement": "Survival", "setting": "[3]", "result": "improved the survival"},
      {"measurement": "Cleavage by ACE within 2 h", "setting": "rACE", "result": "only partially"},
      {"measurement": "Cleavage by neprilysin within 2 h", "setting": "rNEP", "result": "rapidly and fully hydrolyzed"}
    ]}
  ]
}
